Test results: patent US20120058999A1, “Substituted Tetrahydropyrrolopyrazine Compounds” (Gruenenthal GmbH, priority 2010, published 2012)

Tests used:
human B1R = biological target: T1, human B1R (Homo sapiens, UniProt P46663); experiment: Functional investigation on the bradykinin 1 receptor, cell-based fluorescent calcium-mobilization assay (FLIPR), human; conditions: 10 μM test substance; CHO K1 cells transfected with human B1R gene; agonist Lys-Des-Arg9-bradykinin at EC80; % of maximum achievable inhibition
T1 construct: expressed in transfected cells; host or cells: CHO K1 cells (stably transfected)
T1 sequence (P46663 1-353): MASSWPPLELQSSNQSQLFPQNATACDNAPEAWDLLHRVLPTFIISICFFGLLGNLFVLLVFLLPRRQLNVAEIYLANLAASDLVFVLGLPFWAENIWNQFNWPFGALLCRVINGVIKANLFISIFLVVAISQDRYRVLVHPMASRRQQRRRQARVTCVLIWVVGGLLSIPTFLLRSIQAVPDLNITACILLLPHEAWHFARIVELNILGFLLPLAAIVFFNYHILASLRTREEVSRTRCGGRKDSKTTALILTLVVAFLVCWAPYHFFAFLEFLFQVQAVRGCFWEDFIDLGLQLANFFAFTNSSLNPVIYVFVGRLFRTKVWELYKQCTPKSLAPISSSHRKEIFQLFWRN
Experimental: (§1) The agonistic or antagonistic action of substances can be quantified on the bradykinin 1 receptor (B1R) of the human and rat species with ectopically expressing cell lines (CHO K1 cells) and with the aid of a Ca2+-sensitive dye (Fluo-4) using a fluorescent imaging plate reader (FLIPR). The value in % activation is based on the Ca2+ signal after addition of Lys-Des-Arg9 bradykinin (0.5 nM) or Des-Arg9 bradykinin (100 nM). Antagonists lead to a suppression of the Ca2+ influx following administration of the agonist. The % inhibition in comparison with the maximum achievable inhibition is indicated.
(§2) The agonistic or antagonistic action of substances can be determined on the bradykinin 1 receptor (B1R) of humans and rats by means of a cell-based fluorescent calcium-mobilization assay. According to this assay agonist-induced increase of intracellular free Ca^2+ is quantified by means of a Ca^2+-sensitive dye (Fluo-4 type, Molecular Probes Europe BV, Leiden, Netherlands), in a Fluorescent Imaging Plate Reader (FLIPR, Molecular Devices, Sunnyvale, USA) and/or the Novostar (BMG Labtech GmbH, Offenburg, Germany).
(§3) Chinese hamster ovary cells (CHO K1 cells), which are stably transfected with the human B1R gene (hB1R cells), or with the B1R gene of rats (rB1R cells) are used. For functional investigations these cells are seeded into black 96-well plates with a clear bottom (BD Biosciences, Heidelberg, Germany or Greiner, Frickenhausen, Germany) in a density of 20,000-35,000 cells/well. The cells are incubated overnight in a humidified atmosphere at 37° C. and 5% CO2 in culture medium (hB1R cells: Nutrient Mixture Ham's F12, Gibco Invitrogen GmbH, Karlsruhe, Germany or DMEM, Sigma-Aldrich, Taufkirchen, Germany; rB1R cells: D-MEM/F12, Gibco Invitrogen GmbH, Karlsruhe, Germany) with 10 vol. % FBS (foetal bovine serum, Gibco Invitrogen GmbH, Karlsruhe, Germany). On the following day the cells are loaded with the Ca^2+-sensitive dye Fluo-4-AM (Molecular Probes Europe BV, Leiden, Netherlands):
(§4) Method A: The medium of the cells is removed and cell plates are incubated with loading solution, which contains 2.13 μM Fluo-4-AM, 2.5 mM probenecid (Sigma-Aldrich, Taufkirchen, Germany), and 10 mM HEPES (Sigma-Aldrich, Taufkirchen, Germany) in HBSS buffer (Hank's buffered saline solution, Gibco Invitrogen GmbH, Karlsruhe, Germany) for 60 minutes at 37° C. After the plates are washed twice with HBSS buffer, HBSS buffer supplemented 0.1% BSA (bovine serum albumin; Sigma-Aldrich, Taufkirchen, Germany), 5.6 mM glucose and 0.05% gelatine (Merck KGaA, Darmstadt, Germany) is added. Cell plates are incubated for at least 20 minutes in the dark at room temperature before they are used for the Ca^2+ measurement in the FLIPR or Novostar. Method B: The plates are washed with buffer A (15 mM HEPES, 80 mM NaCl, 5 mM KCl, 1.2 mM CaCl2, 0.7 mM MgSO4, 2 mg/ml glucose, 2.5 mM probenecid) and subsequently loaded with buffer A containing 2.4 μM Fluo-4-AM and 0.025% pluronic F127 (Sigma-Aldrich, Taufkirchen, Germany) for 60 minutes at 37° C. Cell plates are washed twice with buffer A. Then, buffer A supplemented with 0.05% BSA and 0.05% gelatine is added and cell plates are incubated in the dark at room temperature for at least 20 minutes before measurement in the FLIPR or Novostar is started.
(§5) The Ca^2+-dependent fluorescence is measured both before and after the addition of substances (λex=488 nm, λem=540 nm). For quantification of the effect the highest fluorescence intensity (FC, fluorescence counts) over time is given.
(§6) The FLIPR protocol consists of two substance additions, done within the instrument while continuously monitoring the Ca^2+-dependent fluorescence at 540 nm. When the Novostar was used, one addition had to be done outside the instrument. First of all test substances (10 μM) are pipetted onto the cells and the intracellular Ca^2+ rise is compared with the control (hB1R: Lys-Des-Arg9-bradykinin >=50 nM; rB1R: Des-Arg9-bradykinin >=1 μM). […]

rat B1R = biological target: T2, rat B1R (Rattus norvegicus, UniProt P97583); experiment: Functional investigation on the bradykinin 1 receptor, cell-based fluorescent calcium-mobilization assay (FLIPR), rat; conditions: 10 μM test substance; CHO K1 cells transfected with rat B1R gene; agonist Des-Arg9-bradykinin at EC80; % of maximum achievable inhibition
T2 construct: expressed in transfected cells; host or cells: CHO K1 cells (stably transfected)
T2 sequence (P97583 1-337): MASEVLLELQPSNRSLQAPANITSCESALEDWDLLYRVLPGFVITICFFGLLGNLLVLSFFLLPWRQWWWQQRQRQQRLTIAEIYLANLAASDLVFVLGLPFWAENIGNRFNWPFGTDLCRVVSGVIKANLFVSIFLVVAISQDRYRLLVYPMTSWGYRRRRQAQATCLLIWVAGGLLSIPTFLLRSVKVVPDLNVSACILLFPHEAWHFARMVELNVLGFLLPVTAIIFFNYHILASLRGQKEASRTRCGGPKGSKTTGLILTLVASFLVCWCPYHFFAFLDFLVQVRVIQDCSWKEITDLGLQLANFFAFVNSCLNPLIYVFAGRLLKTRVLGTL
Experimental: as §1, §2, §3, §4, §5, §6

Row | SMILES | inhibition at 10 µM (human B1R) | inhibition at 10 µM (rat B1R)
1 | CN1CCN(C2CC(N(C)C(=O)CCC3c4cccn4CCN3S(=O)(=O)c3cccc(C(F)(F)F)c3)C2)CC1 (stereo not shown) [CC-61, N-Methyl-N-[3-(4-methyl-piperazin-1-yl)-cyclobutyl]-3-[2-[[3-(trifluoromethyl)phenyl]sulfonyl]-1,2,3,4-tetrahydro-pyrrolo[1,2-a]pyrazin-1-yl]-propionamide] | 12% | 14%
2 | COc1cc(C)c(S(=O)(=O)N2CCn3cccc3C2CCCC(=O)N[C@H]2CCC[C@@H](N3CCN(C)CC3)C2)c(C)c1 (relative stereo) [CC-07, 4-[2-[(4-Methoxy-2,6-dimethyl-phenyl)sulfonyl]-1,2,3,4-tetrahydro-pyrrolo[1,2-a]pyrazin-1-yl]-N-[cis-3-(4-methyl-piperazin-1-yl)-cyclohexyl]-butyramide] | 86% | 101%
3 | COc1cc(C)c(S(=O)(=O)N2CCn3cccc3C2CCCC(=O)N(C)C2CC(N3CCN(C)CC3)C2)c(C)c1 (stereo not shown) [CC-59, 4-[2-[(4-Methoxy-2,6-dimethyl-phenyl)sulfonyl]-1,2,3,4-tetrahydro-pyrrolo[1,2-a]pyrazin-1-yl]-N-methyl-N-[3-(4-methyl-piperazin-1-yl)-cyclobutyl]-butyramide] | 80% | 97%
4 | COc1cc(C)c(S(=O)(=O)N2CCn3cccc3C2COCC(=O)N[C@H]2CCC[C@@H](N3CCN(C)CC3)C2)c(C)c1 (relative stereo) [CC-06, 2-[[2-[(4-Methoxy-2,6-dimethyl-phenyl)sulfonyl]-1,2,3,4-tetrahydro-pyrrolo[1,2-a]pyrazin-1-yl]-methoxy]-N-[cis-3-(4-methyl-piperazin-1-yl)-cyclohexyl]-acetamide] | 96% | 100%
5 | COc1cc(C)c(S(=O)(=O)N2CCn3cccc3C2COCC(=O)N(C)[C@H]2CCC[C@@H](N3CCN(C)CC3)C2)c(C)c1 (stereo partly drawn) [SC-01, 2-[[2-[(4-Methoxy-2,6-dimethyl-phenyl)sulfonyl]-1,2,3,4-tetrahydro-pyrrolo[1,2-a]pyrazin-1-yl]-methoxy]-N-methyl-N-[(1S,3R)-3-(4-methyl-piperazin-1-yl)-cyclohexyl]-acetamide] | 100% | 103%
6 | COc1ccc2cc(S(=O)(=O)N3CCn4cccc4C3CC(=O)N(C)C3CC(N4CCN(C)CC4)C3)ccc2c1 (stereo not shown) [CC-60, 2-[2-[(6-Methoxy-naphthalen-2-yl)sulfonyl]-1,2,3,4-tetrahydro-pyrrolo[1,2-a]pyrazin-1-yl]-N-methyl-N-[3-(4-methyl-piperazin-1-yl)-cyclobutyl]-acetamide] | 99% | 106%
7 | CN1CCN([C@@H]2CCC[C@H](NC(=O)CCC3c4cccn4CCN3S(=O)(=O)c3cccc(C(F)(F)F)c3)C2)CC1 (relative stereo) [CC-10, N-[cis-3-(4-Methyl-piperazin-1-yl)-cyclohexyl]-3-[2-[[3-(trifluoromethyl)phenyl]sulfonyl]-1,2,3,4-tetrahydro-pyrrolo[1,2-a]pyrazin-1-yl]-propionamide] | 29% | 36%
8 | COc1ccc2cc(S(=O)(=O)N3CCn4cccc4C3CC(=O)N(C)[C@H]3CCC[C@@H](N4CCN(C)CC4)C3)ccc2c1 (relative stereo) [CC-04, 2-[2-[(6-Methoxy-naphthalen-2-yl)sulfonyl]-1,2,3,4-tetrahydro-pyrrolo[1,2-a]pyrazin-1-yl]-N-methyl-N-[cis-3-(4-methyl-piperazin-1-yl)-cyclohexyl]-acetamide] | 100% | 103%
9 | Cc1cc(S(=O)(=O)N2CCn3cccc3C2CCC(=O)N(C)[C@H]2CCC[C@@H](N3CCN(C)CC3)C2)c(C)cc1Cl (stereo partly drawn) [SC-03, 3-[2-[(4-Chloro-2,5-dimethyl-phenyl)sulfonyl]-1,2,3,4-tetrahydro-pyrrolo[1,2-a]pyrazin-1-yl]-N-methyl-N-[(1S,3R)-3-(4-methyl-piperazin-1-yl)-cyclohexyl]-propionamide] | 95% | 61%
10 | COc1cc(C)c(S(=O)(=O)N2CCn3c(C)ccc3C2COCC(=O)N(C)[C@H]2CCC[C@@H](N3CCN(C)CC3)C2)c(C)c1 (stereo partly drawn) [SC-06, 2-[[2-[(4-Methoxy-2,6-dimethyl-phenyl)sulfonyl]-6-methyl-1,2,3,4-tetrahydro-pyrrolo[1,2-a]pyrazin-1-yl]-methoxy]-N-methyl-N-[(1S,3R)-3-(4-methyl-piperazin-1-yl)-cyclohexyl]-acetamide] | 97% | 110%
11 | COc1cc(C)c(S(=O)(=O)N2CCn3cccc3C2COCC(=O)N(C)C2CC(N3CCN(C)CC3)C2)c(C)c1 (stereo not shown) [CC-58, 2-[[2-[(4-Methoxy-2,6-dimethyl-phenyl)sulfonyl]-1,2,3,4-tetrahydro-pyrrolo[1,2-a]pyrazin-1-yl]-methoxy]-N-methyl-N-[3-(4-methyl-piperazin-1-yl)-cyclobutyl]-acetamide] | 38% | 88%
